Measurements taken from patent US11214803B2, “Modulators of YAP1 expression” (Ionis Pharmaceuticals, Inc., priority 2019, dated 2022).
Strand notation (5' to 3'): a small letter for the sugar, then the base; units joined by * are phosphorothioate-linked, units joined directly phosphodiester-linked; [ ] holds rarer units or linkages, { } end groups; capitals alone tell only the bases. k = constrained ethyl (cEt); [5mC] = 5-methylcytosine; d = 2'-deoxy (DNA)

How the values were obtained:
[1] = test system: Yap1 mRNA; assay: Antisense inhibition of human Yap1 in A-431 cells by cEt gapmers, single dose (Example 1, RTS4814); type: cell-based
Method: Modified oligonucleotides were designed to target a Yap1 nucleic acid and were tested for their effect on Yap1 mRNA level in vitro. The modified oligonucleotides were tested in a series of experiments that had similar culture conditions. Cultured A-431 cells at a density of 5,000 cells per well were treated using free uptake with 2,000 nM of modified oligonucleotide. After a treatment period of approximately 48 hours, RNA was isolated from the cells and Yap1 mRNA levels were measured by quantitative real-time RTPCR. Human primer probe set RTS4814 (forward sequence […], designated herein as SEQ ID NO.: 11; reverse sequence […], designated herein as SEQ ID NO.: 12; probe sequence […], designated herein as SEQ ID NO.: 13) was used to measure mRNA levels. Yap1 mRNA levels were normalized to total RNA content, as measured by RIBOGREEN®. Results are presented in the tables below as percent control of the amount of Yap1 mRNA relative to untreated control cells (% UTC). The modified oligonucleotides with percent control values marked with an asterisk (*) target the amplicon region of the primer probe set. Additional assays may be used to measure the potency and efficacy of the modified oligonucleotides targeting the amplicon region.
The newly designed modified oligonucleotides in the Tables below were designed as 3-10-3 cEt gapmers. The gapmers are 16 nucleosides in length, wherein the central gap segment comprises of ten 2′-deoxynucleosides and is flanked by wing segments on the 5′ direction and the 3′ direction comprising three nucleosides each. Each nucleoside in the 5′ wing segment and each nucleoside in the 3′ wing segment has a cEt sugar modification. The internucleoside linkages throughout each gapmer are phosphorothioate (P═S) linkages. All cytosine residues throughout each gapmer are 5-methylcytosines.
“Start site” indicates the 5′-most nucleoside to which the gapmer is targeted in the human gene sequence. “Stop site” indicates the 3′-most nucleoside to which the gapmer is targeted human gene sequence. […] Activity of the modified oligonucleotide may be defined in a different experiment.

[2] = test system: Yap1 mRNA; assay: Dose-dependent inhibition of human Yap1 in A-431 cells (Example 6, 5,000 cells per well, RTS4814); type: cell-based; conditions: Table 55, free uptake, A-431 cells 5,000 cells per well, RTS4814; for Yap1 mRNA, % UTC: 48 hours
Method: Modified oligonucleotides described in the studies above were tested at various doses in A-431 cells. Cultured A-431 cells at a density of 5,000 cells per well were treated using free uptake with modified oligonucleotides diluted to concentrations described in the tables below. After approximately 48 hours, Yap1 mRNA levels were measured as previously described using the Human Yap1 primer-probe set RTS4814. Yap1 mRNA levels were normalized to total RNA content, as measured by RIBOGREEN®. Results are presented in the tables below as percent control of the amount of Yap1 mRNA relative to untreated control cells (% UTC). IC50s were calculated using a linear regression on a log/linear plot of the data in excel.

[3] = Table 2, A-431 cells, free uptake, 2,000 nM, approximately 48 hours, RTS4814, Yap1 mRNA relative to untreated control cells
[4] = Table 1, A-431 cells, free uptake, 2,000 nM, approximately 48 hours, RTS4814, Yap1 mRNA relative to untreated control cells
[5] = A-431 cells, 5,000 cells per well, free uptake, 2,000 nM modified oligonucleotide, approx. 48 hours, RTS4814, normalized to RIBOGREEN, Table 3

715551 (kA*kT*kA*dG*dG*dA*dA*dG*dT*dT*dG*dT*dT*kG*kA*k[5mC]; antisense) [Compound 715551]
YAP1 (% UTC) [1, 3]: 82 % UTC

715532 (kT*kA*kA*d[5mC]*dA*dA*d[5mC]*d[5mC]*dT*dG*dG*dT*dT*kT*kG*kT; antisense) [Compound 715532]
YAP1 (% UTC) [1, 4]: 91 % UTC

715481 (antisense kT*kT*kG*dG*dA*dA*dA*d[5mC]*d[5mC]*dA*dT*dT*dA*kT*kT*kA) [Compound 715481]
YAP1 (% UTC) [1, 4]: 66 % UTC

715400 (k[5mC]*kT*k[5mC]*d[5mC]*dG*dA*dG*dT*d[5mC]*d[5mC]*d[5mC]*d[5mC]*dG*k[5mC]*kG*kG; antisense) [Compound 715400]
YAP1 (% UTC) [1, 4]: 107 % UTC

715632 (antisense kA*kT*k[5mC]*d[5mC]*dA*dA*dT*dT*dA*dT*dG*dT*d[5mC]*k[5mC]*k[5mC]*kA) [Compound 715632]
YAP1 (% UTC) [1, 3]: 109 % UTC

715595 (antisense kT*k[5mC]*kA*dT*dG*dG*d[5mC]*dT*dG*dA*dA*dA*dT*kG*kA*kA) [Compound 715595]
YAP1 (% UTC) [1, 4]: 104 % UTC

715438 (antisense kT*kT*k[5mC]*dA*dT*dG*dG*d[5mC]*dA*dA*dA*dA*d[5mC]*kG*kA*kG) [Compound 715438]
YAP1 (% UTC) [1, 5]: 82 % UTC

715435 (antisense kG*kG*kT*d[5mC]*dT*dT*dG*dT*dT*d[5mC]*dT*dT*dA*kT*kG*kG) [Compound 715435]
YAP1 (% UTC) [1, 5]: 36 % UTC

715462 (antisense kT*k[5mC]*kT*d[5mC]*dA*dT*d[5mC]*dT*d[5mC]*dG*dA*dG*dA*kG*kT*kG) [Compound 715462]
YAP1 (% UTC) [1, 5]: 94 % UTC

715528 (kA*kA*kA*d[5mC]*d[5mC]*dT*dG*dA*dT*d[5mC]*d[5mC]*dT*dT*kT*kG*kA; antisense) [Compound 715528]
YAP1 (% UTC) [1, 5]: 98 % UTC

715628 (antisense kG*k[5mC]*k[5mC]*dT*dA*d[5mC]*d[5mC]*dT*dG*dA*d[5mC]*dA*dT*kT*kT*kT) [Compound 715628]
YAP1 (% UTC) [1, 4]: 114 % UTC

715510 (antisense kA*kT*kT*dT*dG*d[5mC]*dT*dG*dT*dG*d[5mC]*dT*dG*kG*kG*kA) [Compound 715510]
YAP1 (% UTC) [1, 5]: 22 % UTC

715533 (k[5mC]*k[5mC]*kT*dA*dA*d[5mC]*dA*dA*d[5mC]*d[5mC]*dT*dG*dG*kT*kT*kT; antisense) [Compound 715533]
YAP1 (% UTC) [1, 3]: 97 % UTC

715582 (kG*kT*k[5mC]*dA*dA*dG*d[5mC]*d[5mC]*dT*dG*dT*d[5mC]*dT*kG*kG*kA; antisense) [Compound 715582]
YAP1 (% UTC) [1, 5]: 33 % UTC

715527 (kT*k[5mC]*kA*d[5mC]*dT*dT*dA*d[5mC]*dT*dT*dT*dA*dA*kG*kA*kA; antisense) [Compound 715527]
YAP1 (% UTC) [1, 3]: 111 % UTC

715441 (antisense k[5mC]*kT*k[5mC]*dT*dG*dG*dT*dT*d[5mC]*dA*dT*dG*dG*k[5mC]*kA*kA) [Compound 715441]
YAP1 (% UTC) [1, 5]: 57 % UTC

715450 (antisense kT*kT*kG*dT*dT*d[5mC]*dT*d[5mC]*dA*dA*dT*dT*d[5mC]*k[5mC]*kT*kG) [Compound 715450]
YAP1 (% UTC) [1, 5]: 53 % UTC

715616 (antisense kG*kA*k[5mC]*dG*dG*dA*dT*dA*dA*dA*dA*dA*dT*kT*kA*k[5mC]) [Compound 715616]
YAP1 (% UTC) [1, 4]: 95 % UTC

715403 (kG*kA*kA*dG*dG*dA*dG*dT*d[5mC]*dG*dG*dG*d[5mC]*kA*kG*k[5mC]; antisense) [Compound 715403]
YAP1 (% UTC) [1, 4]: 72 % UTC

715590 (kT*kT*kG*dG*d[5mC]*dA*dG*dA*dG*dA*dT*dA*dA*kA*kA*k[5mC]; antisense) [Compound 715590]
YAP1 (% UTC) [1, 3]: 84 % UTC

715484 (antisense kT*kA*k[5mC]*dT*d[5mC]*dT*dT*dT*dG*dG*dA*dA*dA*k[5mC]*k[5mC]*kA) [Compound 715484]
YAP1 (% UTC) [1, 4]: 123 % UTC

715578 (kT*kG*kG*d[5mC]*dA*dT*dT*d[5mC]*dA*d[5mC]*dA*dG*dA*kG*kT*kT; antisense) [Compound 715578]
YAP1 (% UTC) [1, 3]: 50 % UTC

715602 (antisense kA*k[5mC]*kA*dG*dA*dA*dT*dT*d[5mC]*d[5mC]*d[5mC]*dA*dA*kG*k[5mC]*kT) [Compound 715602]
YAP1 (% UTC) [1, 3]: 110 % UTC

715601 (antisense kA*kG*kA*dA*dT*dT*d[5mC]*d[5mC]*d[5mC]*dA*dA*dG*d[5mC]*kT*kA*k[5mC]) [Compound 715601]
YAP1 (% UTC) [1, 4]: 106 % UTC

715606 (antisense kA*k[5mC]*k[5mC]*dA*dT*dA*dG*d[5mC]*dA*d[5mC]*dA*dG*dA*kA*kT*kT) [Compound 715606]
YAP1 (% UTC) [1, 5]: 88 % UTC

715585 (kA*kA*kG*dG*dT*d[5mC]*dT*dG*dG*dA*dA*d[5mC]*dA*kG*kA*kT; antisense) [Compound 715585]
YAP1 (% UTC) [1, 5]: 73 % UTC

715559 (k[5mC]*kT*kG*d[5mC]*d[5mC]*dA*dT*dT*dT*dA*dA*dG*dA*kA*kA*kT; antisense) [Compound 715559]
YAP1 (% UTC) [1, 4]: 114 % UTC

715507 (antisense kT*kG*kG*dG*dA*dT*dT*dG*dA*dT*dA*dT*dT*k[5mC]*k[5mC]*kG) [Compound 715507]
YAP1 (% UTC) [1, 5]: 95 % UTC

715586 (kA*kA*kA*dA*dG*dG*dT*d[5mC]*dT*dG*dG*dA*dA*k[5mC]*kA*kG; antisense) [Compound 715586]
YAP1 (% UTC) [1, 4]: 53 % UTC

715531 (kA*k[5mC]*kA*dA*d[5mC]*d[5mC]*dT*dG*dG*dT*dT*dT*dG*kT*kT*kT; antisense) [Compound 715531]
YAP1 (% UTC) [1, 5]: 94 % UTC

715599 (antisense kT*kT*k[5mC]*d[5mC]*d[5mC]*dA*dA*dG*d[5mC]*dT*dA*d[5mC]*d[5mC]*k[5mC]*kA*kA) [Compound 715599]
YAP1 (% UTC) [1, 3]: 82 % UTC

715604 (antisense kT*kA*kG*d[5mC]*dA*d[5mC]*dA*dG*dA*dA*dT*dT*d[5mC]*k[5mC]*k[5mC]*kA) [Compound 715604]
YAP1 (% UTC) [1, 4]: 107 % UTC

715552 (kA*kA*kA*dT*dA*dG*dG*dA*dA*dG*dT*dT*dG*kT*kT*kG; antisense) [Compound 715552]
YAP1 (% UTC) [1, 5]: 86 % UTC

715633 (kG*kT*kG*dA*dT*dA*dG*dG*dT*dG*d[5mC]*d[5mC]*dA*k[5mC]*kT*kA; antisense) [Compound 715633]
YAP1 (% UTC) [1, 5]: 78 % UTC

715619 (antisense kA*kA*kA*dT*dA*dA*dG*dA*d[5mC]*dG*dG*dA*dT*kA*kA*kA) [Compound 715619]
YAP1 (% UTC) [1, 4]: 114 % UTC

715564 (k[5mC]*kA*kA*dG*d[5mC]*dA*d[5mC]*dA*d[5mC]*dA*dA*d[5mC]*dT*k[5mC]*kA*kG; antisense) [Compound 715564]
YAP1 (% UTC) [1, 5]: 75 % UTC

715536 (kG*kG*k[5mC]*dT*dA*dT*dT*dA*dA*dG*d[5mC]*dT*dG*kT*kT*kT; antisense) [Compound 715536]
YAP1 (% UTC) [1, 3]: 137 % UTC

715471 (antisense kT*kA*kT*d[5mC]*dT*dA*dG*d[5mC]*dT*dT*dG*dG*dT*kG*kG*k[5mC]) [Compound 715471]
YAP1 (% UTC) [1, 5]: 36 % UTC

716387 (antisense kT*kA*kT*dG*dG*dT*dT*dT*dA*dT*dA*dT*dA*kG*kT*kA) [compound 716387]
Yap1 mRNA, % UTC ([2]; 148 nM): 94 % UTC
Yap1 mRNA, % UTC ([2]; 444 nM): 94 % UTC
Yap1 mRNA, % UTC ([2]; 1333 nM): 80 % UTC
Yap1 mRNA, % UTC ([2]; 4000 nM): 67 % UTC
IC50 [2]: > 4 µM
